Source: patent US6693207B2, “B-ring estratriene diols” (Wyeth, priority 1997, dated 2004)

Tested on: uterine weight, immature rats
Test: In vivo uterotropic activity
Design: species or system rat
Settings: 0.2 and 2 mg/kg, three days, S.C.
Experimental: Immature rats were treated with doses of 0.2 and 2 mg/kg 5,7,9-estratriene-3β,17β-diol for three days (S.C.) as well as additional groups (n=6) of rats treated with 0.5 μg ethinyl estradiol and vehicle as positive and negative controls, respectively.

`C[C@]12CCc3c(ccc4c3CC[C@H](O)C4)[C@@H]1CC[C@@H]2O` [5,7,9-estratriene-3β,17β-diol] was tested, and the uterine weight was “uterine weight gains at both concentrations”.
